Experimental findings from patent US11065249B2, “Diacylglycerol acyl transferase 2 inhibitor” (Pfizer Inc., priority 2019, dated 2021) are described below.

In brackets after ≈: the same amount, converted by molar mass. Where a name gives a salt, the structure may show the parent alone. Where only a bound is given, the exact number is not on record here.

For data set [1], the system named is human hepatocytes. Kind of data set: High throughput determination of intrinsic clearance in human hepatocytes. The class given is in vitro ADME. The settings on record: high throughput human hepatocyte assay, 1 μM test compound; mean +/− Std Dev. The method, then:
(§1) The incubation was carried out at 37° C. […] The samples were centrifuged (Eppendorf, Hauppauge, N.Y.) at 3000 rpm for 5 min at 4° C.

Data set [2] can be described thus: Determination of pKa (capillary electrophoresis, Analiza). The class given is physicochemical. The settings on record: most basic pKa, mean.
Data set [3] concerns human hepatocytes. In words: Intrinsic clearance in human hepatocytes (relay method). It counts as in vitro ADME. The note with it: relay hepatocyte assay, 1 μM test compound, mean +/− Std Dev. The method, then: (§2) Cryopreserved human hepatocytes (Lot DCM from BioreclamationIVT) were used. […] At time 0 and 4 h, 25 μL of hepatocyte suspension was removed from the incubation and added to 50 μL of ice-cold acetonitrile (containing metoprolol, indomethacin, and terfenadine as internal standards) to quench the reaction. The samples were centrifuged (Eppendorf, Hauppauge, N.Y.) at 3000 rpm (1439×g) for 10 min at room temperature, and 50 μL of supernatant was transferred to a clean plate, dried completely, and reconstituted before liquid chromatography/tandem mass spectrometry (LC-MS/MS) analysis. The remaining hepatocyte suspensions in the incubation plate were centrifuged (3000 rpm, 1439×g, 10 min, room temperature). The supernatant of 300 μL was transferred to a clean 24-well plate and stored at −80° C. until the next relay experiment. For the second relay experiment, the supernatant plates were warmed first to room temperature for 30 minutes, then to 37° C. for 30 min, and hepatocytes were added to the samples to give a final cell density of 0.5 million cells/mL. The plates were incubated at 37° C. for 4 h, sampled, and processed as described above. Five relays were performed to give a total incubation time of 20 h, with sampling points at (0, 4, 8, 12, 16 and 20 h). The concentrations of test compound determined at each time point by the LC-MS/MS analysis were used to calculate the intrinsic clearance.

The nature of data set [4]: Intrinsic clearance in human liver microsomes. It counts as in vitro ADME. The settings on record: 1 μM test compound, mean +/− STD Dev; for CLint (+/−STD Dev): human liver microsome assay; for microsomal CLint at 1 μM: human, pooled human liver microsomes, pH 7.4, human liver microsome assay. How it is done: The incubations were conducted at 37° C. […] (Sorvall R C 3C Plus, Thermo Scientific, Waltham, Mass.).

Data set [5] is described as follows: High throughput determination of intrinsic clearance in human hepatocytes. The class given is in vitro ADME. The settings on record: human, pooled cryopreserved human hepatocytes (suspension), high throughput human hepatocyte assay, 1 μM test compound; mean +/− Std Dev. The method, then:
as §1

Data set [6] deals with DGAT2 in human hepatocytes (Homo sapiens (Human), UniProt Q96PD7). Kind of data set: Determination of IC50 values for DGAT2 inhibitors in human hepatocytes. The class given is cell-based. The note with it: inhibition of DGAT2 in human hepatocytes; geometric mean. The method, then: For evaluation of the effects of DGAT2 inhibitors in a cell-based setting, cryopreserved human hepatocytes (Lot DOO, Celsis, Baltimore, Md.) were thawed and plated onto type I collagen-coated plates according to the manufacturer's instructions. After 18 hours overnight recovery period, the cells were overlayed with media containing 250 μg/mL Geltrex Basement Membrane Matrix (Thermo Fisher). The following day, media was aspirated and replaced with serum-free Williams Media E (Thermo Fisher) containing 400 μM sodium dodecanoate (Sigma-Aldrich, St. Louis, Mo.) and 2 mM GlutaMAX (Thermo Fisher). […] DGAT2 inhibitors were then added to the desired final concentration. After a 15 minute preincubation, 0.2 μCi [^14C(U)]-glycerol (Perkin Elmer) was added to each well followed by a 3 hour incubation. At this point the media was removed, and the cells lysed via orbital shaking in isopropyl alcohol:tetrahydrofuran (9:1) for 15 minutes prior to centrifugation at 3000 rpm for 10 minutes. Radiolabeled lipids were resolved using a solvent system by thin layer chromatography with the solvent consisting of hexanes:diethyl ether:glacial acetic acid (75:23:2, v/v/v). After separation, radiolabeled lipids were visualized using the Typhoon 9500 phosphorimaging system (GE). The half maximal inhibitory concentrations (IC50 values) were determined by nonlinear regression analysis of the % inhibition dose response curve using GraphPad Prism (GraphPad Software, Inc., La Jolla, Calif.).
DGAT2 in human hepatocytes, sequence (Q96PD7 whole entry): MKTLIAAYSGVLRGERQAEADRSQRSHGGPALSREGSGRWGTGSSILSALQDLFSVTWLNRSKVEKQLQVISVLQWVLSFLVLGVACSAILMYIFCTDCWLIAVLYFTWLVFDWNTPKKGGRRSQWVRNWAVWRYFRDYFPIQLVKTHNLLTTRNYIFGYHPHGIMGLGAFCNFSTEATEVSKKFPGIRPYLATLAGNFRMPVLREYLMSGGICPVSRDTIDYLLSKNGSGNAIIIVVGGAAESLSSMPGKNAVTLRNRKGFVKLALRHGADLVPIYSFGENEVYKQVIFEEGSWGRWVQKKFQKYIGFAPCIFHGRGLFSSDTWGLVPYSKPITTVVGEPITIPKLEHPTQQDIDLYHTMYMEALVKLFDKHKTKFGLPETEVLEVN
Table 5 below provides the IC50 values of selected Examples for inhibition of DGAT2 in human hepatocytes in accordance with the above-described assay. Results are reported as geometric mean IC50 values, with the number of replicates (n) shown.

The target of data set [7] is human DGAT2 (hDGAT2) (Homo sapiens (Human), UniProt Q96PD7). Kind of data set: In vitro DGAT2 assay, determination of IC50 values for DGAT2 inhibitors. It counts as biochemical. The note with it: inhibition of DGAT2, hDGAT2 membrane fractions; geometric mean. The method, then:
Recombinant baculovirus for the FLAG-tagged hDGAT2 was generated in SF9 insect cells using Bac-to-Bac baculovirus expression system (Invitrogen) according to the manufacturer's protocol. For the expression of hDGAT2, SF9 cells (20 L) grown in Sf900II media were infected with hDGAT2 baculovirus at a multiplicity of infection of 1 in a Wave Bioreactor System 20/50P wave bag (GE Healthcare). After 40 hours of infection, the cells were then harvested by centrifugation at 5,000×g. The cell pellets were washed by resuspending in phosphate buffered saline (PBS) and collected by centrifugation at 5,000×g. The cell paste was flash frozen in liquid N2 and stored at −80° C. until needed. All operations below were at 4° C. unless otherwise noted. The cells were resuspended in lysis buffer (50 mM Tris-HCl, pH 8.0, 250 mM sucrose) including 1 mM ethylenediaminetetraacetic acid (EDTA) and the complete protease inhibitor cocktail (Roche Diagnostics) at a ratio of 3 mL buffer per 1 g cell paste. The cells were lysed by dounce homogenizer. The cell debris was removed by centrifugation at 1,000×g for 20 min, and the supernatant was centrifuged at 100,000×g for 1 hour. The resulting pellet was rinsed three times by filling ultracentrifuge tubes to the top with ice cold PBS before decanting. The washed pellet was resuspended with gentle stirring for 1 hour in lysis buffer containing 8 mM 3-[(3-cholamidopropyl)dimethylammonio]-1-propanesulfonate (CHAPS) at a ratio of 1 mL buffer per 1 g of original cell paste and centrifuged again at 100,000×g for 1 hour. The resulting supernatant was aliquotted, flash frozen in liquid N2, and stored at −80° C. until use.
To 1 μL of compounds dissolved in 100% DMSO and spotted at the bottom of each well, 5 μL of 0.04% bovine serum albumin (BSA) (fatty acid free, Sigma Aldrich) was added and the mixture was incubated at room temperature for 15 minutes. hDGAT2 membrane fractions were diluted in 100 mM Hepes-NaOH, pH 7.4, 20 mM MgCl2 containing 200 nM methyl arachidonyl fluorophosphonate (Cayman Chemical, dried from ethyl acetate stock solution under argon gas and dissolved in DMSO as 5 mM stock). 10 μL of this enzyme working solution was added to the plates and incubation continued for 2 hours at room temperature. DGAT2 reactions were initiated by the addition of 4 μL of substrates containing 30 μM [1-^14C]decanoyl-CoA (custom-synthesized by Perkin Elmer, 50 mCi/mmol) and 125 μM 1,2-didecanoyl-sn-glycerol (Avanti Polar Lipids) dissolved in 12.5% acetone. The reaction mixtures were incubated at room temperature for 40 min and the reactions were stopped by addition of 5 μL of 1% H3PO4. After the addition of 45 μL MicroScint-E (Perkin-Elmer), plates were sealed with Top Seal-A covers (Perkin-Elmer) and phase partitioning of substrates and products was achieved using a HT-91100 microplate orbital shaker (Big Bear Automation, Santa Clara, Calif.). Plates were centrifuged at 2,000×g for 1 minute in an Allegra 6R Centrifuge (Beckman Coulter) and then were sealed again with fresh covers before reading in a 1450 Microbeta Wallac Trilux Scintillation Counter (Perkin Elmer). DGAT2 activity was measured by quantifying the generated product [^14C]tridecanoylglycerol in the upper organic phase.
Inhibitors were tested at eleven different concentrations to generate IC50 values for each compound.

A short description of data set [8]: Intrinsic clearance in human hepatocytes (relay method). The note with it: cryopreserved human hepatocytes (suspension), relay hepatocyte assay, 1 μM test compound, mean +/− Std Dev. It counts as in vitro ADME. The method, then:
as §2

A short description of data set [9]: Thermodynamic solubility in various biorelevant media (PBS, SGN, FaSSIF, FeSSIF). It counts as physicochemical. The method, then: The solubility of active pharmaceutical ingredients is an important characteristic in determining biological performance and ease of formulation during drug development, with high solubility being preferred (Klein, S. 2010, The AAPS Journal, 12, 397-406; Di, L., et al 2012, Drug Disc. Today, 17.486-495). A test sample of crystalline solid (˜7 mg) was combined in a vial with 1 mL of the relevant buffer solution and the mixture vortexed to combine. If the solid dissolved completely, additional solid was added with vortexing until a saturated solution was obtained. The saturated solution/solid mixture was capped and subjected to temperature cycling as follows: 1 min at 25° C.; 8 h at 40° C.; 5 h at 15° C. and 12 h at 25° C. The mixture was filtered in a centrifugal filtration device (0.22 μm PVDF filter, MilliporeSigma, Milwaukee, Wis.) at 13,000 rpm and the concentration of the test compound in the filtrate was determined by HPLC/UPLC with reference to a three point standard curve. Phosphate buffered saline (PBS, pH 6.8, 50 mM phosphate buffer, 250 mM NaCl). Simulated gastric fluid (SGN pH 1.2, USP recipe). Fasted state simulated intestinal fluid (FaSSIF, 3 mM sodium taurocholate, 0.75 mM phospholipid from soybean lecithin, 50 mM phosphate buffer, ionic strength adjusted to 250 mM with NaCl, pH 6.8) and fed state simulated intestinal fluid (FeSSIF, 15 mM sodium taurocholate, 3.75 mM phospholipid from soybean lecithin, 144 mM acetic acid, 50 mM phosphate buffer, ionic strength adjusted to 250 mM with NaCl, pH 6.8).

human DGAT2 (hDGAT2), sequence (Q96PD7 whole entry): as above

With `CCOc1cccnc1Oc1cncc(-c2ncc(C(=O)NC3(CO)CCOC3)cn2)c1` (single isomer, unassigned) [WO2018033832 Ex. 6a], the “CLint (+/−Std Dev)” value is recorded as <3.8 +/− 1.1 μL/min/10^6 cells in data set [1] and 3.2 +/− 0.21 μL/min/million cells in [3]. Also, in data set [2], the “Basic pKa” value came to 2.3. Moreover, the “CLint (+/−STD Dev)” value in data set [4] worked out at 13 ± 2.0 µL/min/mg.
`CCOc1cccnc1Oc1cncc(-c2ncc(C(=O)N[C@H]3CNC[C@H](F)C3)cn2)c1` [Example 7, 2-{5-[(3-ethoxypyridin-2-yl)oxy]pyridin-3-yl}-N-[(3R,5R)-5-fluoropiperidin-3-yl]pyrimidine-5-carboxamide, trifluoroacetate salt] displayed a hepatocyte CLint at 1 μM in [5] of under 1.8 µL/min/1e6 cells. In data set [2], this compound registered a pKa of 7.5. In addition, the intrinsic metabolic clearance (microsomal CLint) at 1 μM in data set [4] is under 7 µL/min/mg. The compound also displayed an IC50 in data set [6] of 100 nM.
Take `CCOc1cccnc1Oc1cncc(-c2ncc(C(=O)N[C@@H]3CCOC3)cn2)c1` [WO2018033832 Ex. 2]: the “CLint (+/−Std Dev)” value in data set [1] is recorded as 4.7 +/− 0.55 μL/min/10^6 cells; in data set [3] it was 4.9 +/− 0.17 μL/min/million cells. In addition, the half-inhibitory concentration (IC50) in data set [7] came out at 200 nM. Further, the “Basic pKa” value in data set [2] is listed as 2.5. Further, in [4], the “CLint (+/−STD Dev)” value came to 17 ± 1.3 µL/min/mg.
Take `CCOc1cccnc1Oc1cncc(-c2ncc(C(=O)N[C@H]3CCOC3)cn2)c1` [WO2018033832 Ex. 1]: the figures for the “CLint (+/−Std Dev)” value in [1] and in data set [3] were <3.8 +/− 1.1 μL/min/10^6 cells and 3.9 +/− 0.52 μL/min/million cells, respectively. Besides, the values for the concentration for half-maximal inhibition (IC50) in [7] and in data set [6] were 17 nM and 2.8 nM, respectively. In addition, in data set [2], the “Basic pKa” value is recorded as 2.4. In addition, in [4], the “CLint (+/−STD Dev)” value is 11 ± 2.9 µL/min/mg.
On to `CCOc1cccnc1Oc1cncc(-c2ncc(C(=O)N[C@@H]3CNCC[C@H]3F)cn2)c1` [Example 5, 2-{5-[(3-Ethoxypyridin-2-yl)oxy]pyridin-3-yl}-N-[(3R,4R)-4-fluoropiperidin-3-yl]pyrimidine-5-carboxamide], for which the figures for the intrinsic clearance (hepatocyte CLint) at 1 μM in [5] and in data set [8] were under 1.9 µL/min/1e6 cells and 1.9 µL/min/1e6 cells, respectively. Besides, the pKa in [2] came to 7.3. In data set [4], this compound had a microsomal CLint at 1 μM of under 7 µL/min/mg. In data set [6], this compound displayed an IC50 of 26 nM.
In turn, `CCOc1cccnc1Oc1cncc(-c2ncc(C(=O)N[C@H]3CNC[C@@H](F)C3)cn2)c1` (racemic) [Example 25, rac-2-{5-[(3-ethoxypyridin-2-yl)oxy]pyridin-3-yl}-N-[(3R,5S)-5-fluoropiperidin-3-yl]pyrimidine-5-carboxamide, trifluoroacetate salt] registered a hepatocyte CLint at 1 μM in data set [5] of 6.5 µL/min/1e6 cells. Further, the results for the IC50 in [7] and in [6] were 200 nM and over 130 nM, respectively. The compound further registered a pKa in data set [2] of 6.8. In data set [4], the microsomal CLint at 1 μM stood at 11 µL/min/mg.
`CCOc1cccnc1Oc1cncc(-c2ncc(C(=O)N[C@H]3CCOC3)cn2)c1` [WO2018033832 Ex. 1, Form 2]: the Solubility in [9] (FaSSIF pH 6.8) is 93 µg/mL (≈ 228 µM); in data set [9] (PBS, pH 6.8), 60 µg/mL (≈ 147 µM); in data set [9] (SGN pH 1.2) it was 1082 µg/mL (≈ 2660 µM).
For `CCOc1cccnc1Oc1cncc(-c2ncc(C(=O)N[C@H]3CCOC3)cn2)c1` [WO2018033832 Ex. 1, Form 1], in that order: 69 µg/mL (≈ 169 µM), 43 µg/mL (≈ 106 µM) and 78 µg/mL (≈ 191 µM).
`CCOc1cccnc1Oc1cncc(-c2ncc(C(=O)NC3(CO)CCOC3)cn2)c1` (single isomer, unassigned) [WO2018033832 Ex. 6b]: the “CLint (+/−Std Dev)” value in data set [1] is given as <3.3 +/− 0.49 μL/min/10^6 cells; in data set [3], 2.9 +/− 0.057 μL/min/million cells. In addition, the “Basic pKa” value in data set [2] is 2.4. Also, the “CLint (+/−STD Dev)” value in [4] is under 11 ± 3.5 µL/min/mg.
